The values that follow are results of earlier work, collected in paper PMC10893061, “Novel 2,5-Diketopiperazines with In Vitro Activities against Protozoan Parasites of Tropical Diseases” (Pharmaceuticals, 2024).

The IC50 is the concentration at which inhibition is half-maximal.

Data set [1] concerns human and monkey cell lines. The arrangement: method as in PMID 14513908. As to conditions: cited from earlier work.
Data set [2] has as its system P. falciparum. The arrangement: method as in PMID 14513908. To be noted: cited from earlier work.
The test system of data set [3] is Plasmodium. The arrangement: method as in PMID 28223778. As to conditions: cited from earlier work.
In data set [4] the test system is Plasmodium. The arrangement: method as in PMID 33446930, PMID 33307212. To be noted: 30mg/(kg × day), 4-day suppressive test; cited from earlier work.
For data set [5], the system named is Plasmodium. The arrangement: method as in PMID 33446930, PMID 33307212. To be noted: read-out: IC50 plasmodicidal in vitro activity; cited from earlier work.

SMILES strings stand for the structures.

For `CN1C(=O)C2(CO)NC(=O)C1(Cc1ccccc1)SSSS2` (centres unmarked) [1-demethylhyalodendrin tetrasulfide], the cytotoxicity entry in data set [1] is “high cytotoxicity”. The IC50 in data set [2] is 6.7 µM.
Consider `CC(C)C[C@@H]1NC(=O)[C@@H]2CCCN2C1=O` [Gancidin W], for which the “in vivo anti-malarial activity” value in data set [3] was “active, low-toxic”.
As for `CO[C@]1(CC(C)C)NC(=O)[C@](O)(Cc2ccccc2)NC1=O` [Diatretol], the “growth inhibition of the parasite in vivo” value in data set [4] is “more than 50%”. Moreover, the IC50 in data set [5] was 600 nM.
